Assay results taken from PMC6556873, “Rapid Covalent-Probe Discovery by Electrophile-Fragment Screening” (Journal of the American Chemical Society, 2019).
Where two headings read alike, the source gives them in different places.

Key:
BSA = biological target: T1, BSA (Bos taurus, UniProt P02769); design: Intact protein LC/MS covalent labelling, fragments in pools of five, 200 uM each, 4 °C; conditions: 24 h, 4 °C, pool of five; 200 µM; covalent
T1 construct: gene ALB

NNMT (hNNMT) = biological target: T2, NNMT (hNNMT) (Homo sapiens, UniProt P40261); design: Intact protein LC/MS covalent labelling, fragments in pools of five, 200 uM each, 4 °C; conditions: 24 h, 4 °C, pool of five; 200 µM; covalent
T2 construct: wild type, N-terminal His6 tag kept (no cleavage described), E. coli, construct 31248 Da
T2 sequence (P40261 1-264): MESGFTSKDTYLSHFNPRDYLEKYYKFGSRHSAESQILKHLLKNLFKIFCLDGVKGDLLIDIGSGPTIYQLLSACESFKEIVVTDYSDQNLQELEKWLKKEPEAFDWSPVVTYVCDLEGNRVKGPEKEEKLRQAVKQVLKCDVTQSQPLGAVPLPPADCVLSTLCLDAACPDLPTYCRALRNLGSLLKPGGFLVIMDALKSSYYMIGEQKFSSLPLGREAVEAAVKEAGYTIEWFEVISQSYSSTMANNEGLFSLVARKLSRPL

NUDT7 = biological target: T3, NUDT7 (Homo sapiens, UniProt P0C024); design: Intact protein LC/MS covalent labelling, fragments in pools of five, 200 uM each, 4 °C; conditions: 24 h, 4 °C, pool of five; 200 µM; covalent
T3 construct: residues 14-235, E. coli, pNIC28-Bsa4, N-terminal His6 tag removed by TEV, construct 26672 Da

OTUB2 (OTUB2A) = biological target: T4, OTUB2 (OTUB2A) (Homo sapiens, UniProt Q96DC9); design: Intact protein LC/MS covalent labelling, fragments in pools of five, 200 uM each, 4 °C; conditions: 24 h, 4 °C, pool of five; 200 µM; covalent
T4 construct: full length residues 1-234, E. coli BL21(DE3)-R3, His tag removed by TEV, construct 27312 Da
T4 sequence (Q96DC9 1-234): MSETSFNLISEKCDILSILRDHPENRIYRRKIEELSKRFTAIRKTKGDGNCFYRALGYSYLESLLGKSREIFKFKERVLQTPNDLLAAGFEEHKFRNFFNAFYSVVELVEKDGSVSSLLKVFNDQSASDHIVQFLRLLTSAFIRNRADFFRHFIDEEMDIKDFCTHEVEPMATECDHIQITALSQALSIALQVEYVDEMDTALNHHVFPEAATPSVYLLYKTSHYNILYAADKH

PCAF = biological target: T5, PCAF (Homo sapiens, UniProt Q92831); design: Intact protein LC/MS covalent labelling, fragments in pools of five, 200 uM each, 4 °C; conditions: 24 h, 4 °C, pool of five; 200 µM; covalent
T5 construct: gene KAT2B

in vitro [1] = assay: in vitro; design: species or system CCD841, HEK293; conditions: human, hb2 cells, read-out: HB-2 Cells Viability (%)
in vitro [2] = assay: in vitro; design: species or system HB2, HEK293; conditions: human, ccd841 cells
in vitro [3] = assay: in vitro; design: species or system HB2, CCD841; conditions: human, hek293 cells

T3 sequence (P0C024 14-235): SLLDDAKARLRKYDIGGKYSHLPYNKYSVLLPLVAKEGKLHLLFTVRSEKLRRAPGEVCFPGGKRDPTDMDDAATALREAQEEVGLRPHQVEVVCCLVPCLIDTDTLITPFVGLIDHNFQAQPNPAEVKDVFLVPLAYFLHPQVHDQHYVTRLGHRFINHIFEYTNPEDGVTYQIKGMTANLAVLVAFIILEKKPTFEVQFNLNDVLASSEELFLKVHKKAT
T5 sequence (Q92831 whole entry, the tested form may be a part): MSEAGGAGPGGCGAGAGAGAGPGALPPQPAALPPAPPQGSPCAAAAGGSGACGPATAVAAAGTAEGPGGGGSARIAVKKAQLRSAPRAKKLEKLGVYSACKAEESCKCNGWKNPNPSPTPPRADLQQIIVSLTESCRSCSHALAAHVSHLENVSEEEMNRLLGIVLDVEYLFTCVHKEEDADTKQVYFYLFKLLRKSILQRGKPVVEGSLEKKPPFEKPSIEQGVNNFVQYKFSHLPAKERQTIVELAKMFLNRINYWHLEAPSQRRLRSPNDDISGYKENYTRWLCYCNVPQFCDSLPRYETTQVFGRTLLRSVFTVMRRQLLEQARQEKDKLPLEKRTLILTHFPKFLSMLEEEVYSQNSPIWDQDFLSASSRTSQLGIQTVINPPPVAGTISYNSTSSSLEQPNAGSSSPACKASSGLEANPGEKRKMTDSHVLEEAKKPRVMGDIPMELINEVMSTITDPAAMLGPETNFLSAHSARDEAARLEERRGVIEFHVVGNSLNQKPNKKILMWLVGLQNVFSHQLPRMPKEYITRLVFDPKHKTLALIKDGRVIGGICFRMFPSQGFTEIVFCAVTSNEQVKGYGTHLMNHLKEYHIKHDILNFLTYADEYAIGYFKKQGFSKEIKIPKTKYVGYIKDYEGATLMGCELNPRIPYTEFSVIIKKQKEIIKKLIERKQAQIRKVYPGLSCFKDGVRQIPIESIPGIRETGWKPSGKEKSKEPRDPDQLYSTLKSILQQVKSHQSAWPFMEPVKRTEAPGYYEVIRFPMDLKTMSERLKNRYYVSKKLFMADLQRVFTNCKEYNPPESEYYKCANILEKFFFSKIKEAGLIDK
T1 sequence (P02769 whole entry, the tested form may be a part): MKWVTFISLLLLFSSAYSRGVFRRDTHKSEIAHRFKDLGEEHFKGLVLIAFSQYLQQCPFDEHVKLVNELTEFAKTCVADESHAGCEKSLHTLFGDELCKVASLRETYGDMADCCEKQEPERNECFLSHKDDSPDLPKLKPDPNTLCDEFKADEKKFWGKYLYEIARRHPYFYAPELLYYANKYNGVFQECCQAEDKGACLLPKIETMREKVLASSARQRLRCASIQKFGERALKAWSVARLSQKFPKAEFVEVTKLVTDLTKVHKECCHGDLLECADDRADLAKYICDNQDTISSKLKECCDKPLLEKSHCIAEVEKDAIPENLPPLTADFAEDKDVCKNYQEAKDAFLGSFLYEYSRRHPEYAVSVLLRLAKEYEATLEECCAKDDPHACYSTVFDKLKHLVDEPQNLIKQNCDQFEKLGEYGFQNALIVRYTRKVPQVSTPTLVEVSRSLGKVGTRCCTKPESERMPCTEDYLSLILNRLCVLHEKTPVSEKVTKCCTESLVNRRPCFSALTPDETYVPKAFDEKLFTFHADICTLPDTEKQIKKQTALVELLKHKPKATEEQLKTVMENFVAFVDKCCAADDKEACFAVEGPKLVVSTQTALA

Cc1cccc(CN2CCN(C(=O)CCl)CC2)c1 [PCM-0102340]
BSA (BSA): 0 | NNMT (NNMT (hNNMT)): 0.26 | NUDT7 (NUDT7): 0 | OTUB2 (OTUB2 (OTUB2A)): 0.17 | PCAF (PCAF): 0 | viability at 48 h, 10 µM (in vitro [1]): 19.6% | viability at 48 h, 10 µM (in vitro [2]): 42.4% | viability at 48 h, 10 µM (in vitro [3]): 15.3%

C=CC(=O)N1CCCCC1c1ccc(C(=O)NC)n1C (stereo not shown) [PCM-0102610]
BSA (BSA): 0 | NNMT (NNMT (hNNMT)): 0.14 | NUDT7 (NUDT7): 0 | OTUB2 (OTUB2 (OTUB2A)): 0 | PCAF (PCAF): 0 | viability at 48 h, 10 µM (in vitro [1]): 106% | viability at 48 h, 10 µM (in vitro [2]): 112% | viability at 48 h, 10 µM (in vitro [3]): 99.3%

N#Cc1oc2ccccc2c1NC(=O)CCl [PCM-0102252]
BSA (BSA): 0 | NNMT (NNMT (hNNMT)): 0.34 | NUDT7 (NUDT7): 0.37 | OTUB2 (OTUB2 (OTUB2A)): 0.86 | PCAF (PCAF): 0 | viability at 48 h, 10 µM (in vitro [1]): 3.8% | viability at 48 h, 10 µM (in vitro [2]): 34.7% | viability at 48 h, 10 µM (in vitro [3]): 3.4%

COc1cc(=O)[nH]c(NC(=O)CCl)n1 [PCM-0102873]
BSA (BSA): 0.17 | NNMT (NNMT (hNNMT)): 0 | NUDT7 (NUDT7): 0 | OTUB2 (OTUB2 (OTUB2A)): 0 | PCAF (PCAF): 0 | viability at 48 h, 10 µM (in vitro [1]): 99.9% | viability at 48 h, 10 µM (in vitro [2]): 100% | viability at 48 h, 10 µM (in vitro [3]): 114%

CC(C)c1ccc(NC(=O)CCl)cc1 [PCM-0102532]
BSA (BSA): 0 | NNMT (NNMT (hNNMT)): 0.68 | NUDT7 (NUDT7): 0.18 | OTUB2 (OTUB2 (OTUB2A)): 0.33 | PCAF (PCAF): 0 | viability at 48 h, 10 µM (in vitro [1]): 12.7% | viability at 48 h, 10 µM (in vitro [2]): 40.4% | viability at 48 h, 10 µM (in vitro [3]): 7.1%

N#Cc1cccc(C(=O)NNC(=O)CCl)c1 [PCM-0102857]
BSA (BSA): 0 | NNMT (NNMT (hNNMT)): 0 | NUDT7 (NUDT7): 0 | OTUB2 (OTUB2 (OTUB2A)): 0.41 | PCAF (PCAF): 0 | viability at 48 h, 10 µM (in vitro [1]): 103% | viability at 48 h, 10 µM (in vitro [2]): 82.6% | viability at 48 h, 10 µM (in vitro [3]): 102%

Cc1ccc(NC(=O)CCl)c(F)c1 [PCM-0103028]
BSA (BSA): 0.18 | NNMT (NNMT (hNNMT)): 0.23 | NUDT7 (NUDT7): 0 | OTUB2 (OTUB2 (OTUB2A)): 0.14 | PCAF (PCAF): 0 | viability at 48 h, 10 µM (in vitro [1]): 42.3% | viability at 48 h, 10 µM (in vitro [2]): 58.4% | viability at 48 h, 10 µM (in vitro [3]): 29%

CN(CC(=O)N1CCOCC1)C(=O)CCl [PCM-0102743]
BSA (BSA): 0 | NNMT (NNMT (hNNMT)): 0 | NUDT7 (NUDT7): 0 | OTUB2 (OTUB2 (OTUB2A)): 0 | PCAF (PCAF): 0 | viability at 48 h, 10 µM (in vitro [1]): 101% | viability at 48 h, 10 µM (in vitro [2]): 99% | viability at 48 h, 10 µM (in vitro [3]): 97.6%

Cc1nc(C2(NC(=O)CCl)CCCCC2)no1 [PCM-0102983]
BSA (BSA): 0 | NNMT (NNMT (hNNMT)): 0 | NUDT7 (NUDT7): 0.1 | OTUB2 (OTUB2 (OTUB2A)): 0 | PCAF (PCAF): 0 | viability at 48 h, 10 µM (in vitro [1]): 102% | viability at 48 h, 10 µM (in vitro [2]): 112% | viability at 48 h, 10 µM (in vitro [3]): 99.7%

COc1ccc(NC(=O)CCl)cc1 [PCM-0102156]
BSA (BSA): 0 | NNMT (NNMT (hNNMT)): 0.25 | NUDT7 (NUDT7): 0 | OTUB2 (OTUB2 (OTUB2A)): 0.52 | PCAF (PCAF): 0 | viability at 48 h, 10 µM (in vitro [1]): 24.7% | viability at 48 h, 10 µM (in vitro [2]): 42.7% | viability at 48 h, 10 µM (in vitro [3]): 2.4%

CC(NC(=O)CCl)c1ccc(F)cc1F (stereo not shown) [PCM-0103035]
BSA (BSA): 0 | NNMT (NNMT (hNNMT)): 0.58 | NUDT7 (NUDT7): 0.15 | OTUB2 (OTUB2 (OTUB2A)): 0.34 | PCAF (PCAF): 0 | viability at 48 h, 10 µM (in vitro [1]): 77.6% | viability at 48 h, 10 µM (in vitro [2]): 78.2% | viability at 48 h, 10 µM (in vitro [3]): 66.4%

O=C(CCl)NC(=O)c1ccc[nH]1 [PCM-0102795]
BSA (BSA): 0 | NNMT (NNMT (hNNMT)): 0 | NUDT7 (NUDT7): 0 | OTUB2 (OTUB2 (OTUB2A)): 0 | PCAF (PCAF): 0 | viability at 48 h, 10 µM (in vitro [1]): 96.2% | viability at 48 h, 10 µM (in vitro [2]): 100% | viability at 48 h, 10 µM (in vitro [3]): 149%

O=C(CCl)NCc1cccc(F)c1 [PCM-0103047]
BSA (BSA): 0 | NNMT (NNMT (hNNMT)): 0 | NUDT7 (NUDT7): 0 | OTUB2 (OTUB2 (OTUB2A)): 0.43 | PCAF (PCAF): 0 | viability at 48 h, 10 µM (in vitro [1]): 83.7% | viability at 48 h, 10 µM (in vitro [2]): 69.7% | viability at 48 h, 10 µM (in vitro [3]): 88.1%

C=CC(=O)N1CCn2nc(C)nc2C1 [PCM-0102605]
BSA (BSA): 0 | NNMT (NNMT (hNNMT)): 0 | NUDT7 (NUDT7): 0 | OTUB2 (OTUB2 (OTUB2A)): 0 | PCAF (PCAF): 0 | viability at 48 h, 10 µM (in vitro [1]): 102% | viability at 48 h, 10 µM (in vitro [2]): 104% | viability at 48 h, 10 µM (in vitro [3]): 88.4%

C=CC(=O)Nc1ccccc1C(=O)OC [PCM-0102967]
BSA (BSA): 0 | NNMT (NNMT (hNNMT)): 0 | NUDT7 (NUDT7): 0.51 | OTUB2 (OTUB2 (OTUB2A)): 0 | PCAF (PCAF): 0 | viability at 48 h, 10 µM (in vitro [1]): 90.2% | viability at 48 h, 10 µM (in vitro [2]): 81% | viability at 48 h, 10 µM (in vitro [3]): 68.8%

Cl.O=C(CCl)N1CCN(Cc2ccco2)CC1 [PCM-0103006]
BSA (BSA): 0 | NNMT (NNMT (hNNMT)): 0 | NUDT7 (NUDT7): 0 | OTUB2 (OTUB2 (OTUB2A)): 0 | PCAF (PCAF): 0 | viability at 48 h, 10 µM (in vitro [1]): 88.6% | viability at 48 h, 10 µM (in vitro [2]): 85% | viability at 48 h, 10 µM (in vitro [3]): 65.7%

COC(=O)C1CCN(C(=O)CCl)CC1 [PCM-0102978]
BSA (BSA): 0 | NNMT (NNMT (hNNMT)): 0 | NUDT7 (NUDT7): 0 | OTUB2 (OTUB2 (OTUB2A)): 0 | PCAF (PCAF): 0 | viability at 48 h, 10 µM (in vitro [1]): 100% | viability at 48 h, 10 µM (in vitro [2]): 110% | viability at 48 h, 10 µM (in vitro [3]): 99.4%

O=C(CCl)Nc1cccc(C(=O)N2CCSCC2)c1 [PCM-0103072]
BSA (BSA): 0 | NNMT (NNMT (hNNMT)): 0 | NUDT7 (NUDT7): 0 | OTUB2 (OTUB2 (OTUB2A)): 0 | PCAF (PCAF): 0 | viability at 48 h, 10 µM (in vitro [1]): 34.5% | viability at 48 h, 10 µM (in vitro [2]): 55.2% | viability at 48 h, 10 µM (in vitro [3]): 7.8%

Cl.O=C(CCl)NC1CCN(C2CC2)CC1 [PCM-0103055]
BSA (BSA): 0 | NNMT (NNMT (hNNMT)): 0.23 | NUDT7 (NUDT7): 0 | OTUB2 (OTUB2 (OTUB2A)): 0 | PCAF (PCAF): 0 | viability at 48 h, 10 µM (in vitro [1]): 98.2% | viability at 48 h, 10 µM (in vitro [2]): 83% | viability at 48 h, 10 µM (in vitro [3]): 92.7%

C=CC(=O)N(C)CC1CCn2ccnc2C1 (stereo not shown) [PCM-0102752]
BSA (BSA): 0 | NNMT (NNMT (hNNMT)): 0 | NUDT7 (NUDT7): 0 | OTUB2 (OTUB2 (OTUB2A)): 0 | PCAF (PCAF): 0 | viability at 48 h, 10 µM (in vitro [1]): 97.7% | viability at 48 h, 10 µM (in vitro [2]): 122% | viability at 48 h, 10 µM (in vitro [3]): 88.4%
